Reference: article PMC10053710, “Influence of Lipidation Pattern of the KR12 Fragment of Peptide LL-37 on Its Antibacterial and Hemolytic Activities” (International Journal of Molecular Sciences, 2023)
≈ marks a conversion by molar mass, not a printed value. Where “and” joins values, the source holds several entries; their conditions need not be identical. Equal entries are not always repeated. Where a SMILES comes first, the peptide text is derived from it. The star is where a group is joined. Octanoyl = CCCCCCCC(=O)*; X1 = CCCCCCC(CCCC)C(=O)*; X3 = CCCCC(CC)C(=O)*; Butyryl = CCCC(=O)*

Experiments:
[1] = system: Klebsiella aerogenes ATCC 13048; format: cell-based; conditions: ATCC 13048, 18 h
Description: (§1) Tests of the antibacterial activity were carried out as we just described. Briefly, for assays, the following strains of ESKAPE bacteria were chosen: Acinetobacter baumannii ATCC BAA-1605, Enterococcus faecium ATCC 700221, Klebsiella aerogenes ATCC 13048 (formerly Enterobacter aerogenes), Klebsiella pneumoniae ATCC 700603, and Pseudomonas aeruginosa ATCC 9027. Moreover, the reference strains of Staphylococcus aureus were used: S. aureus ATCC 25923, S. aureus ATCC 6538, S. aureus ATCC 33591 (MRSA), S. aureus ATCC 9144, and S. aureus ATCC 12598. Before experiments, all the strains were stored at −80 °C in Roti®-Store cryo vials (Carl Roth GmbH, Karlsruhe, Germany). To evaluate the activity of the compounds, bacteria were transferred into fresh Mueller–Hinton medium (Becton Dickinson, Warszawa, Poland) and incubated for 24 h at 37 °C. In the next step, bacterial inoculums were seeded on Mueller–Hinton agar plates (BioMaxima SA, Lublin, Poland) and incubated again for 24 h. The MIC values were determined using the broth microdilution method according to the Clinical and Laboratory Standards Institute Protocol. The initial inoculums of bacteria (0.5 × 10^5 colony forming units (CFU)/mL) prepared in Mueller–Hinton broth were exposed to the ranging concentrations of peptides (1–512 µg/mL). The experiments were conducted on 96-well microtiter plates, with a final volume of 100 µL. The inoculum densities were checked spectrophotometrically (Multiskan™ GO Microplate Spectrophotometer, Thermo Scientific, Waltham, MA, USA) at 600 nm. The results were read after incubation for 18 h at 37 °C. The MIC values were the lowest concentration at which a visible growth of microorganisms was inhibited. All experiments were conducted in triplicate. Moreover, positive (growth) and negative (sterility) controls were included.

[2] = system: Pseudomonas aeruginosa ATCC 9027; format: cell-based; conditions: ATCC 9027, 18 h
Description: as §1

[3] = system: Enterococcus faecium ATCC 700221; format: cell-based; conditions: ATCC 700221, 18 h
Description: as §1

[4] = system: Klebsiella pneumoniae ATCC 700603; format: cell-based; conditions: ATCC 700603, 18 h
Description: as §1

S. aureus ATCC 6538 = format: cell-based, Staphylococcus aureus; conditions: ATCC 6538, 18 h
Description: as §1

S. aureus ATCC 12598 = format: cell-based, Staphylococcus aureus; conditions: ATCC 12598, 18 h
Description: as §1

S. aureus ATCC 25923 = format: cell-based, Staphylococcus aureus; conditions: ATCC 25923, 18 h
Description: as §1

S. aureus ATCC 9144 = format: cell-based, Staphylococcus aureus; conditions: ATCC 9144, 18 h
Description: as §1

[5] = system: S. aureus ATCC 33591 (MRSA); format: cell-based, Staphylococcus aureus; conditions: ATCC 33591, 18 h
Description: as §1

[6] = 18 h
[7] = system: human red blood cells (hRBCs); experiment: Hemolysis assay; conditions: for MHC5 (minimum hemolytic concentration causing 5% hemolysis of hRBCs): 4% (v/v) erythrocytes in PBS, peptides 1–512 µg/mL, 1 h at 37 °C, hemoglobin at 540 nm
[8] = fresh batch of blood (footnote a)

MIC K. aerogenes [1] [µg/mL] | MIC P. aeruginosa [2] [µg/mL] | MIC E. faecium [3] [µg/mL] | MIC K. pneumoniae [4] [µg/mL] | MIC S. aureus 6538 (S. aureus ATCC 6538) [µg/mL] | MIC S. aureus 12598 (S. aureus ATCC 12598) [µg/mL] | MIC S. aureus 25923 (S. aureus ATCC 25923) [µg/mL] | MIC S. aureus 9144 (S. aureus ATCC 9144) [µg/mL] | MIC S. aureus 33591 [5] [µg/mL] | MIC A. baumannii [6] [µg/mL] | SMILES | Hemolytic effect over the studied concentration range ([7]; hRBCs, concentration range up to 512 µg/mL, significant = >5% hemolysis) | MHC5 (minimum hemolytic concentration causing 5% hemolysis of hRBCs) ([7]; 100% = 1% Triton-X 100, ≥ means less than 5% hemolysis up to 512 µg/mL) [µg/mL] | MHC5 (minimum hemolytic concentration causing 5% hemolysis of hRBCs) [7, 8]
256 (≈ 151 µM) | 64 (≈ 37.7 µM) | 8 (≈ 4.71 µM) | 128 (≈ 75.4 µM) | 8 (≈ 4.71 µM) | 32 (≈ 18.9 µM) | 32 (≈ 18.9 µM) | 32 (≈ 18.9 µM) | 32 (≈ 18.9 µM) | 64 (≈ 37.7 µM) | CCCCCCCC(=O)N[C@@H](CCCNC(=N)N)C(=O)N[C@@H](CC(C)C)C(=O)N[C@@H](Cc1ccccc1)C(=O)N[C@@H](CC(=O)O)C(=O)N[C@@H](CCCCN)C(=O)N[C@H](C(=O)N[C@@H](CCCNC(=N)N)C(=O)N[C@@H](CCC(N)=O)C(=O)N[C@H](C(=O)N[C@H](C(=O)N[C@@H](CCCNC(=N)N)C(=O)N[C@@H](CCCCN)C(N)=O)[C@@H](C)CC)C(C)C)[C@@H](C)CC [XII, C8^α-retro-KR12-NH2] (Octanoyl-RLFDKIRQVIRK-NH2) |  | ≥512 | 
8 (≈ 4.56 µM) | 32 (≈ 18.3 µM) | 2 (≈ 1.14 µM) | 8 (≈ 4.56 µM) | 32 (≈ 18.3 µM) | 4 (≈ 2.28 µM) | 8 (≈ 4.56 µM) | 2 (≈ 1.14 µM) | 4 (≈ 2.28 µM) | 4 (≈ 2.28 µM) | CCCCCCC(CCCC)C(=O)N[C@@H](CCCCN)C(=O)N[C@@H](CCCNC(=N)N)C(=O)N[C@H](C(=O)N[C@H](C(=O)N[C@@H](CCC(N)=O)C(=O)N[C@@H](CCCNC(=N)N)C(=O)N[C@H](C(=O)N[C@@H](CCCCN)C(=O)N[C@@H](CC(=O)O)C(=O)N[C@@H](Cc1ccccc1)C(=O)N[C@@H](CC(C)C)C(=O)N[C@@H](CCCNC(=N)N)C(N)=O)[C@@H](C)CC)C(C)C)[C@@H](C)CC (some centres unmarked) [XIII, 2-Buthyloctanoic acid-KR12-NH2] (X1-KRIVQRIKDFLR-NH2) |  |  | 8 µg/mL and 16 ^a µg/mL
16 (≈ 9.43 µM) | 128 (≈ 75.4 µM) | 4 (≈ 2.36 µM) | 16 (≈ 9.43 µM) | 16 (≈ 9.43 µM) | 32 (≈ 18.9 µM) | 64 (≈ 37.7 µM) | 32 (≈ 18.9 µM) | 16 (≈ 9.43 µM) | 16 (≈ 9.43 µM) | CCCCC(CC)C(=O)N[C@@H](CCCCN)C(=O)N[C@@H](CCCNC(=N)N)C(=O)N[C@H](C(=O)N[C@H](C(=O)N[C@@H](CCC(N)=O)C(=O)N[C@@H](CCCNC(=N)N)C(=O)N[C@H](C(=O)N[C@@H](CCCCN)C(=O)N[C@@H](CC(=O)O)C(=O)N[C@@H](Cc1ccccc1)C(=O)N[C@@H](CC(C)C)C(=O)N[C@@H](CCCNC(=N)N)C(N)=O)[C@@H](C)CC)C(C)C)[C@@H](C)CC (some centres unmarked) [XIV, 2-Ethylhexanoic acid-KR12-NH2] (X3-KRIVQRIKDFLR-NH2) |  |  | 256 ^a µg/mL

SMILES | MIC K. aerogenes [1] [µg/mL] | MIC P. aeruginosa [2] [µg/mL] | MIC E. faecium [3] [µg/mL] | MIC K. pneumoniae [4] [µg/mL] | MIC S. aureus 6538 (S. aureus ATCC 6538) [µg/mL] | MIC S. aureus 12598 (S. aureus ATCC 12598) [µg/mL] | MIC S. aureus 25923 (S. aureus ATCC 25923) [µg/mL] | MIC S. aureus 9144 (S. aureus ATCC 9144) [µg/mL] | MIC S. aureus 33591 [5] [µg/mL] | MIC A. baumannii [6] [µg/mL] | Hemolytic effect over the studied concentration range ([7]; hRBCs, concentration range up to 512 µg/mL, significant = >5% hemolysis) | MHC5 (minimum hemolytic concentration causing 5% hemolysis of hRBCs) ([7]; 100% = 1% Triton-X 100, ≥ means less than 5% hemolysis up to 512 µg/mL) [µg/mL] | MHC5 (minimum hemolytic concentration causing 5% hemolysis of hRBCs) [7, 8]
CCCC(=O)NCCCC[C@H](NC(=O)CCC)C(=O)N[C@@H](CCCNC(=N)N)C(=O)N[C@H](C(=O)N[C@H](C(=O)N[C@@H](CCC(N)=O)C(=O)N[C@@H](CCCNC(=N)N)C(=O)N[C@H](C(=O)N[C@@H](CCCCN)C(=O)N[C@@H](CC(=O)O)C(=O)N[C@@H](Cc1ccccc1)C(=O)N[C@@H](CC(C)C)C(=O)N[C@@H](CCCNC(=N)N)C(N)=O)[C@@H](C)CC)C(C)C)[C@@H](C)CC [X, C4^α, C4^ε-KR12-NH2] (Butyryl-K(Butyryl)RIVQRIKDFLR-NH2) | 256 (≈ 150 µM) | >512 | 32 (≈ 18.7 µM) | 512 (≈ 299 µM) | 32 (≈ 18.7 µM) | 512 (≈ 299 µM) | 128 (≈ 74.8 µM) | 256 (≈ 150 µM) | 512 (≈ 299 µM) | 128 (≈ 74.8 µM) | did not induce any significant hemolysis (>5%) |  | 
